This is an account of results in patent US9981975B2, “Pyrrolotriazine compounds as tam inhibitors” (Incyte Corporation, priority 2016, dated 2018).

Bounds are passed on as bounds.

What is called IC50 is the concentration at which inhibition is half-maximal.

Common to all, as to assay type: biochemical
One assay has as its target phosphor-Axl (Homo sapiens (Human), UniProt P30530). Briefly: TAM Enzymatic Assay (HTRF), Axl. The settings on record: recombinant autophosphorylated Axl, 60 min, room temperature.
Another assay deals with c-Mer (Homo sapiens (Human), UniProt Q12866). Put plainly: TAM Enzymatic Assay (HTRF), Mer. The following applies: 60 min, room temperature. The method, then:
The kinase assay buffer contained 50 mM HEPES, pH7.5, 10 mM MgCl2, 1 mM EGTA, 0.01% NP-40 and 2 mM DTT. 0.1 ul test compounds dissolved in DMSO were transferred from compound plates to white 384-well assay plates (Greiner […] plates). […] 4 ul enzyme solution (or assay buffer for the enzyme blank) was added to the appropriate wells in each plate, and then 4 ul/well substrate solution was added to initiate the reaction. The plate was protected from light and incubated at room temperature for 60 min. […] The plate was incubated for 1 h at room temperature, and HTRF (homogenous time resolved fluorescence) signal was measured on a PHERAstar FS plate reader (BMG labtech). Percentage of inhibition was calculated for each concentration and IC50 value was generated from curve fitting with GraphPad Prism software.
(In TR-FRET formats the signal depends on donor and acceptor labels being close together.)

Another assay has as its target Tyro3 (Homo sapiens (Human), UniProt Q06418). Put plainly: TAM Enzymatic Assay (HTRF), Tyro3. The following applies: Tyro3, 60 min, room temperature. Put shortly:
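HTRF kinase assay in 50 mM HEPES pH 7.5, 10 mM MgCl2, 1 mM EGTA, 0.01% NP-40, 2 mM DTT; compound in DMSO pre-dispensed, enzyme added, reaction started with substrate, 60 min at room temperature in the dark.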

Sequence of Tyro3 (Q06418 41-890): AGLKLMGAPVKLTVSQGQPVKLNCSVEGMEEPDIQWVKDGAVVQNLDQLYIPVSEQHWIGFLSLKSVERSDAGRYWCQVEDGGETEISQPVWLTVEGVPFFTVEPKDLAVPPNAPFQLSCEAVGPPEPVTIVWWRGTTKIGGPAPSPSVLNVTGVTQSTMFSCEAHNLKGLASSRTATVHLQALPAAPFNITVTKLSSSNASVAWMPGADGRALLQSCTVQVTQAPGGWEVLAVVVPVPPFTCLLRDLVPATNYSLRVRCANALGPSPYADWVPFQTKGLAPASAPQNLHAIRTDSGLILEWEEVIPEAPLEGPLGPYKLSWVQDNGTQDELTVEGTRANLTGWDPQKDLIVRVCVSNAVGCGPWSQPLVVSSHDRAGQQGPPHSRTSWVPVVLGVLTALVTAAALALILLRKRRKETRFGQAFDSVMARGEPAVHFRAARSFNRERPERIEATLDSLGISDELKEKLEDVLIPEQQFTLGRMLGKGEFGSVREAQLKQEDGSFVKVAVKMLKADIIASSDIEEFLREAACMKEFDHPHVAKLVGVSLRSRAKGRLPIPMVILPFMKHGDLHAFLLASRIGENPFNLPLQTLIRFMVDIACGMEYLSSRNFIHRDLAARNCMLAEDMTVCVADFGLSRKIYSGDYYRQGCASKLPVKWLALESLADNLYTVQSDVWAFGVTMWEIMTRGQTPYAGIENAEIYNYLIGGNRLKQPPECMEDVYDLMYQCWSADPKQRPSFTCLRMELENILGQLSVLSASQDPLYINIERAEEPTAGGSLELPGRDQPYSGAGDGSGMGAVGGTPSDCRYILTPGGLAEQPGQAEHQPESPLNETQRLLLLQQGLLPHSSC
Sequence of c-Mer (Q12866 21-999): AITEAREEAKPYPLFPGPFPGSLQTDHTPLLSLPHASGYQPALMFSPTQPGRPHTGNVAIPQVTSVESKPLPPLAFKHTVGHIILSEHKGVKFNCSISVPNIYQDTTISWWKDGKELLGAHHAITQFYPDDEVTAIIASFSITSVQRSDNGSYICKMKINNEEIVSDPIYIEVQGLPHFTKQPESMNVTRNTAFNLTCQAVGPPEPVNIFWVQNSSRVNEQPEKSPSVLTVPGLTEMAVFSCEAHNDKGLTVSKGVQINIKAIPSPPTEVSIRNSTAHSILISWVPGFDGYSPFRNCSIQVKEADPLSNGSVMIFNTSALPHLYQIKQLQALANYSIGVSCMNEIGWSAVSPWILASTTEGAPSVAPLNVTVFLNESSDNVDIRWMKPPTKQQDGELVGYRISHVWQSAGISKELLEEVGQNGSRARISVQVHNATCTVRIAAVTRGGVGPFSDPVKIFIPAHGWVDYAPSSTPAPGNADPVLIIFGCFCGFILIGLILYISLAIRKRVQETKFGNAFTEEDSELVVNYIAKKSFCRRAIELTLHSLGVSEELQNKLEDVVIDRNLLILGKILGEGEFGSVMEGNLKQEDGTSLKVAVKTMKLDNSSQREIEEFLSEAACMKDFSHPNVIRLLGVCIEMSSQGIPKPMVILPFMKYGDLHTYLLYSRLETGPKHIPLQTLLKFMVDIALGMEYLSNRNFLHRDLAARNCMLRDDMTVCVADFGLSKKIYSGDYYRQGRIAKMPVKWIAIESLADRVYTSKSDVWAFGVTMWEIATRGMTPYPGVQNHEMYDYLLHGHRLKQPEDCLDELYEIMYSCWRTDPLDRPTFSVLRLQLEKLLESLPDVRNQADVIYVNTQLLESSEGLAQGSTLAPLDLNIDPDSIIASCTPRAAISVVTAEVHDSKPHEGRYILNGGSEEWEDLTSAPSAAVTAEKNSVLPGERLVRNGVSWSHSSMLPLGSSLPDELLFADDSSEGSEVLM
Sequence of phosphor-Axl (P30530 26-894): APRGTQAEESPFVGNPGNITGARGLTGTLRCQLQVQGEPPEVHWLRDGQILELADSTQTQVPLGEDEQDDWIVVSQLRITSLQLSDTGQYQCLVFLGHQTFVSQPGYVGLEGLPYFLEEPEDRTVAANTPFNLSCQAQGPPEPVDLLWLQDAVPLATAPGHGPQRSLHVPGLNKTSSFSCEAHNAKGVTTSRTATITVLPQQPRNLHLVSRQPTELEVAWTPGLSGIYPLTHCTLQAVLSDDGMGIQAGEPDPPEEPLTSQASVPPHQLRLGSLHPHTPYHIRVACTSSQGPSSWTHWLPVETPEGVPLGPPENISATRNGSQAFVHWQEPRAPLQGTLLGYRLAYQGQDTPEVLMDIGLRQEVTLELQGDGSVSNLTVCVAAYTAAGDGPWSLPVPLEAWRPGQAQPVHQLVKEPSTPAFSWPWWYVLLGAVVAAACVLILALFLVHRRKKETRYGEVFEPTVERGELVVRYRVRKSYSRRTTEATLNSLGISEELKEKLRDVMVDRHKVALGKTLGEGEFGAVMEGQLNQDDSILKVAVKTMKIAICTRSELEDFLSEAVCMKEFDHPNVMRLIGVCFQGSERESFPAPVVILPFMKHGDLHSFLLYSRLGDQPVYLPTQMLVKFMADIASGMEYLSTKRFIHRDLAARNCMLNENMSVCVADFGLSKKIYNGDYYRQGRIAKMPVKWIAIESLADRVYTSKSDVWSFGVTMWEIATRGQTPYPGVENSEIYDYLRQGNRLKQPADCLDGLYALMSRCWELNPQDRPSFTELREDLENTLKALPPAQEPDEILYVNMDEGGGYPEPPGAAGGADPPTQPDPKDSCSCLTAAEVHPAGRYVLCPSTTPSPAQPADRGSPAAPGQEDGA

Consider `Cc1c(-c2cccnc2)c(=O)c(C(=O)Nc2ccc(-c3cc(C4CCN(C(=O)C(C)C)CC4)n4ncnc(N)c34)cc2)cn1C1CC1` [Example 147, N-(4-(4-Amino-7-(1-isobutyrylpiperidin-4-yl)pyrrolo[1,2-f][1,2,4]triazin-5-yl)phenyl)-1-cyclopropyl-6-methyl-4-oxo-5-(pyridin-3-yl)-1,4-dihydropyridine-3-carboxamide], for which the figures for the IC50 on phosphor-Axl, at c-Mer and against Tyro3 were no more than 5 nM, no more than 5 nM and greater than 100 nM, respectively.
`Cc1c(Br)cc(C(=O)Nc2ccc(-c3cc(C4CCN(C(=O)C(C)C)CC4)n4ncnc(N)c34)cc2)c(=O)n1-c1cccnc1` [Example 130, N-(4-(4-Amino-7-(1-isobutyrylpiperidin-4-yl)pyrrolo[2,1-f][1,2,4]triazin-5-yl)phenyl)-5-bromo-6-methyl-2-oxo-2H-[1,3′-bipyridine]-3-carboxamide]: the IC50 on phosphor-Axl was no more than 5 nM; against c-Mer, no more than 5 nM; against Tyro3 it was greater than 100 nM.
As to `Cc1cc(C(=O)Nc2ccc(-c3cc(C4CCN(C(=O)C(C)C)CC4)n4ncnc(N)c34)cc2)c(=O)n(-c2cncc(F)c2)c1C` [Example 121, N-(4-(4-Amino-7-(1-isobutyrylpiperidin-4-yl)pyrrolo[2,1-f][1,2,4]triazin-5-yl)phenyl)-5′-fluoro-5,6-dimethyl-2-oxo-2H-[1,3′-bipyridine]-3-carboxamide], the IC50 on phosphor-Axl was no more than 5 nM; against c-Mer it was no more than 5 nM; against Tyro3, greater than 100 nM.
As for `Cc1c(-c2cncc(F)c2)c(=O)c(C(=O)Nc2ccc(-c3cc(C4CCN(C(=O)C(C)C)CC4)n4ncnc(N)c34)cc2)cn1C(C)C` [Example 98, N-(4-(4-Amino-7-(1-isobutyrylpiperidin-4-yl)pyrrolo[2,1-f][1,2,4]triazin-5-yl)phenyl)-5′-fluoro-1-isopropyl-2-methyl-4-oxo-1,4-dihydro-[3,3′-bipyridine]-5-carboxamide], the figures for the IC50 at phosphor-Axl, on c-Mer and on Tyro3 were no more than 5 nM, no more than 5 nM and 10 to 100 nM, respectively.
Regarding `Cc1c(C(F)F)cc(C(=O)Nc2ccc(-c3cc(C4CCN(C(=O)C(C)C)CC4)n4ncnc(N)c34)cc2)c(=O)n1-c1ccccn1` [Example 127, N-(4-(4-Amino-7-(1-isobutyrylpiperidin-4-yl)pyrrolo[2,1-f][1,2,4]triazin-5-yl)phenyl)-5-(difluoromethyl)-6-methyl-2-oxo-2H-[1,2′-bipyridine]-3-carboxamide], the IC50 is no more than 5 nM at phosphor-Axl, no more than 5 nM against c-Mer and greater than 100 nM against Tyro3.
On to `CCn1cc(C(=O)Nc2ccc(-c3cc(C4CCN(C(=O)[C@@H](C)O)CC4)n4ncnc(N)c34)cc2)c(=O)n(-c2ccc(F)cc2)c1=O` [Example 79, (R)—N-(4-(4-Amino-7-(1-(2-hydroxypropanoyl)piperidin-4-yl)pyrrolo[1,2-f][1,2,4]triazin-5-yl)phenyl)-1-ethyl-3-(4-fluorophenyl)-2,4-dioxo-1,2,3,4-tetrahydropyrimidine-5-carboxamide], for which the values for the IC50 at phosphor-Axl, at c-Mer and against Tyro3 were no more than 5 nM, no more than 5 nM and 10 to 100 nM, respectively.
Turning to `CC(=O)N1CCC(c2cc(-c3ccc(NC(=O)c4cccn(-c5ccccc5)c4=O)cc3)c3c(N)ncnn23)CC1` [Example 24, N-{4-[7-(1-Acetylpiperidin-4-yl)-4-aminopyrrolo[2,1-f][1,2,4]triazin-5-yl]phenyl}-2-oxo-1-phenyl-1,2-dihydropyridine-3-carboxamide], the results for the IC50 on phosphor-Axl, on c-Mer and against Tyro3 were no more than 5 nM, no more than 5 nM and 10 to 100 nM, respectively.
`CC(C)C(=O)N1CCC(c2cc(-c3ccc(NC(=O)c4cn(C(C)C)c(=O)n(-c5cnn(C)c5)c4=O)cc3)c3c(N)ncnn23)CC1` [Example 87, N-(4-(4-Amino-7-(1-isobutyrylpiperidin-4-yl)pyrrolo[2,1-f][1,2,4]triazin-5-yl)phenyl)-1-isopropyl-3-(1-methyl-1H-pyrazol-4-yl)-2,4-dioxo-1,2,3,4-tetrahydropyrimidine-5-carboxamide]: the IC50 at phosphor-Axl was no more than 5 nM; against c-Mer it was no more than 5 nM; against Tyro3, greater than 100 nM.
On to `CS(=O)(=O)N1CCC(c2cc(-c3ccc(NC(=O)c4cccn(-c5ccc(F)cc5)c4=O)cc3F)c3c(N)ncnn23)CC1` [Example 43], for which the values for the IC50 on phosphor-Axl, on c-Mer and at Tyro3 were no more than 5 nM, no more than 5 nM and 10 to 100 nM, respectively.
Take `CCN(C)C(=O)N1CCC(c2cc(-c3ccc(NC(=O)c4cn(C(C)C)c(=O)n(-c5ccccc5)c4=O)cc3)c3c(N)ncnn23)CC1` [Example 62, N-(4-(4-Amino-7-(1-(ethyl(methyl)carbamoyl)piperidin-4-yl)pyrrolo[1,2-f][1,2,4]triazin-5-yl)phenyl)-1-isopropyl-2,4-dioxo-3-phenyl-1,2,3,4-tetrahydropyrimidine-5-carboxamide]: the IC50 on phosphor-Axl was no more than 5 nM; at c-Mer, no more than 5 nM; at Tyro3 it was 10 to 100 nM.
With `Cc1c(-c2ccccn2)c(=O)c(C(=O)Nc2ccc(-c3cc(C4CCN(C(=O)C(C)C)CC4)n4ncnc(N)c34)cc2)cn1C1CC1` [Example 141, N-(4-(4-Amino-7-(1-isobutyrylpiperidin-4-yl)pyrrolo[2,1-f][1,2,4]triazin-5-yl)phenyl)-1′-cyclopropyl-2′-methyl-4′-oxo-1′,4′-dihydro-[2,3′-bipyridine]-5′-carboxamide], the IC50 on phosphor-Axl is no more than 5 nM; on c-Mer it was no more than 5 nM; on Tyro3 it was greater than 100 nM.
On to `Cc1c(-c2cccc(C#N)c2)c(=O)c(C(=O)Nc2ccc(-c3cc(C4CCN(C(=O)C(C)C)CC4)n4ncnc(N)c34)cc2)cn1C(C)C` [Example 99, N-(4-(4-Amino-7-(1-isobutyrylpiperidin-4-yl)pyrrolo[2,1-f][1,2,4]triazin-5-yl)phenyl)-5-(3-cyanophenyl)-1-isopropyl-6-methyl-4-oxo-1,4-dihydropyridine-3-carboxamide], for which the concentration for half-maximal inhibition (IC50) was no more than 5 nM at phosphor-Axl, no more than 5 nM at c-Mer and 10 to 100 nM at Tyro3.
Take `CC(C)n1cc(C(=O)Nc2ccc(-c3cc(C4CCN(C(=O)N(C)C)CC4)n4ncnc(N)c34)cc2)c(=O)n(-c2cccc(F)c2)c1=O` [Example 70, N-(4-(4-Amino-7-(1-(dimethylcarbamoyl)piperidin-4-yl)pyrrolo[1,2-f][1,2,4]triazin-5-yl)phenyl)-3-(3-fluorophenyl)-1-isopropyl-2,4-dioxo-1,2,3,4-tetrahydropyrimidine-5-carboxamide]: the IC50 at phosphor-Axl is no more than 5 nM; against c-Mer it was no more than 5 nM; against Tyro3, 10 to 100 nM.
Take `CC(C)C(=O)N1CCC(c2cc(-c3ccc(NC(=O)c4cc5c(n(-c6ccccc6)c4=O)CCCC5=O)cc3)c3c(N)ncnn23)CC1` [Example 74, N-(4-(4-Amino-7-(1-isobutyrylpiperidin-4-yl)pyrrolo[1,2-f][1,2,4]triazin-5-yl)phenyl)-2,5-dioxo-1-phenyl-1,2,5,6,7,8-hexahydroquinoline-3-carboxamide]: the IC50 at phosphor-Axl is no more than 5 nM; against c-Mer it was no more than 5 nM; at Tyro3, 10 to 100 nM.
In the case of `COC(=O)N1CCC(c2cc(-c3ccc(NC(=O)c4cccn(-c5ccccc5)c4=O)cc3F)c3c(N)ncnn23)CC1` [Example 38, Methyl 4-[4-amino-5-(2-fluoro-4-{[(2-oxo-1-phenyl-1,2-dihydropyridin-3-yl)carbonyl]amino}phenyl)pyrrolo[2,1-f][1,2,4]triazin-7-yl]piperidine-1-carboxylate], the IC50 at phosphor-Axl was no more than 5 nM; at c-Mer, no more than 5 nM; against Tyro3 it was 10 to 100 nM.
With `CC(C)n1cc(C(=O)Nc2ccc(-c3cc(C4CCN(C(=O)N(C)C)CC4)n4ncnc(N)c34)cc2)c(=O)n(-c2ccccc2)c1=O` [Example 61, N-(4-(4-Amino-7-(1-(dimethylcarbamoyl)piperidin-4-yl)pyrrolo[1,2-f][1,2,4]triazin-5-yl)phenyl)-1-isopropyl-2,4-dioxo-3-phenyl-1,2,3,4-tetrahydropyrimidine-5-carboxamide], the IC50 on phosphor-Axl is no more than 5 nM; against c-Mer, no more than 5 nM; against Tyro3 it was 10 to 100 nM.
Take `Nc1ncnn2c1c(-c1ccc(NC(=O)c3cccn(-c4ccc(F)cc4)c3=O)cc1F)cc2[C@H]1CC[C@@H](O)CC1` [Example 19, N-{4-[4-Amino-7-(cis-4-hydroxycyclohexyl)pyrrolo[2,1-f][1,2,4]triazin-5-yl]-3-fluorophenyl}-1-(4-fluorophenyl)-2-oxo-1,2-dihydropyridine-3-carboxamide]: the IC50 on phosphor-Axl, at c-Mer and at Tyro3 was no more than 5 nM each time.
With `COC(=O)N1CCC(c2cc(-c3ccc(NC(=O)c4cccn(-c5ccc(F)cc5)c4=O)cc3)c3c(N)ncnn23)CC1` [Example 37, Methyl 4-{4-amino-5-[4-({[1-(4-fluorophenyl)-2-oxo-1,2-dihydropyridin-3-yl]carbonyl}amino)phenyl]pyrrolo[2,1-f][1,2,4]triazin-7-yl}piperidine-1-carboxylate], the IC50 at phosphor-Axl is no more than 5 nM; on c-Mer, no more than 5 nM; on Tyro3, 10 to 100 nM.
For the compound `Nc1ncnn2c(C3CCNCC3)cc(-c3ccc(NC(=O)c4cccn(-c5ccccc5)c4=O)cc3F)c12` [Example 34, N-[4-(4-Amino-7-piperidin-4-ylpyrrolo[2,1-f][1,2,4]triazin-5-yl)-3-fluorophenyl]-2-oxo-1-phenyl-1,2-dihydropyridine-3-carboxamide], the IC50 at phosphor-Axl was no more than 5 nM; on c-Mer, no more than 5 nM; against Tyro3 it was 10 to 100 nM.
